Experimental findings from US20230091047A1 (priority 2019, published 2023) are described below.

The term EC50 denotes the concentration at which the effect is half-maximal. In general, CC50 refers to the concentration at which the toxic effect on the cells reaches its halfway point. A low value points to greater toxicity to the cells.

Series [1] deals with HBV (HepG2.117 cell line, inducibly HBV producing). Description: Anti-HBV activity: intracellular HBV DNA by real-time PCR in HepG2.117 cells after 3 days of treatment. In kind it is cell-based, hepatitis B virus. The method in brief:
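Tet-off HepG2.117; HBV replication induced (no doxycycline); serial compound dilutions, 3 d; intracellular HBV DNA by real-time PCR, HBV-specific primers/probe.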
On the technique in general: Real-time PCR tracks product formation cycle by cycle.

The nature of the next series: in vitro. In kind it is cell-based. Particulars: human, HepG2 or HepG2.117 cells, ATPlite, mean value. Put shortly:
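Luminescent ATP quantitation served as the viability endpoint following a 3- or 4-day incubation with test compounds.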

Setting [2] is: Hepatitis B virus, HepG2.117, 72 h, HepG2.117 cells, intracellular HBV DNA by real-time PCR, 3 days of treatment, mean value; read-out: EC50 (μM, mean value).
[3] abbreviates: 3-days incubation (not marked with *).
The mark [4] stands for this setting: Hepatitis B virus, HepG2.117, 72 h, HepG2.117 cells, 3 days of treatment, intracellular HBV DNA by real-time PCR; mean value; read-out: EC50 (μM, mean value).
Where [5] appears, read: 3-days incubation (unmarked values).

Read-outs that look alike come from different tables or passages of the source.

Take `CNC(=O)c1ccc(-n2c(NCc3nnn(C)c3C(F)(F)F)nc3c(c2=O)C[C@@H](C)N(C(=O)c2ccc(Cl)c(Cl)c2)C3)cc1` [Compound C539]: the EC50 in series [1] (setting [2]) turned out to be 5.47 µM. Besides, the CC50 at 3 days in the series “in vitro” (setting [3]) was over 50 µM.

Regarding `Cc1cc(-c2ccc(-n3c(NC(C)C)nc4c(c3=O)C[C@@H](C)N(C(=O)c3ccc(Cl)c(Cl)c3)C4)cc2)on1` [Compound C246, (6R)-7-(3,4-dichlorobenzoyl)-6-methyl-3-[4-(3-methyl-1,2-oxazol-5-yl)phenyl]-2-[(propan-2-yl)amino]-5,6,7,8-tetrahydropyrido[3,4-d]pyrimidin-4(3H)-one], the EC50 in series [1] (setting [4]) is 0.19 µM. The same molecule had a CC50 at 3 days in “in vitro” (setting [5]) of over 50 µM.

On to `CNC(=O)c1ccc(-n2c(NCc3ncnn3-c3ccccc3)nc3c(c2=O)C[C@@H](C)N(C(=O)c2ccc(Cl)c(Cl)c2)C3)cc1` [Compound C553], for which the EC50 in series [1] (setting [2]) stood at 23.7 µM. This molecule also had a CC50 at 3 days in the series “in vitro” (setting [3]) of over 50 µM.

For `CNC(=O)c1ccc(-n2c(N[C@H](C)c3ccc4[nH]ncc4c3)nc3c(c2=O)C[C@@H](C)N(C(=O)c2ccc(Cl)c(Cl)c2)C3)cc1` (single isomer, unassigned) [Compound C529a], in series [1] (setting [2]), the EC50 stood at 0.16 µM. This molecule also returned a CC50 at 3 days in the series “in vitro” (setting [3]) of over 50 µM.

Consider `CNC(=O)c1ccc(-n2c(NC(C)C)nc3c(c2=O)C[C@@H](C)N(C(=O)c2ccc(Cl)c(C(F)F)c2)C3)cc1` [Compound C427], for which, in series [1] (setting [2]), the EC50 was determined as 0.05 µM. The molecule further gave a CC50 at 3 days in “in vitro” (setting [3]) of over 50 µM.

In the case of `CNC(=O)c1ccc([C@H](C)Nc2nc3c(c(=O)n2-c2ccc(C(=O)NC)cc2)C[C@@H](C)N(C(=O)c2ccc(Cl)c(Cl)c2)C3)cc1` (single isomer, unassigned) [Compound C530b], the concentration giving a half-maximal response (EC50) in series [1] (setting [2]) was over 10 µM. Further, the CC50 at 3 days in the series “in vitro” (setting [3]) is over 50 µM.

Consider `COc1ccc(CNc2nc3c(c(=O)n2CC2CCOCC2)CCN(C(=O)c2ccc(Cl)c(Cl)c2)C3)cc1` [Compound C65, 7-(3,4-dichlorobenzoyl)-2-{[(4-methoxyphenyl)methyl]amino}-3-[(oxan-4-yl)methyl]-5,6,7,8-tetrahydropyrido[3,4-d]pyrimidin-4(3H)-one], for which the EC50 in series [1] (setting [4]) worked out at 2.72 µM. Moreover, the CC50 at 3 days in the series “in vitro” (setting [5]) was found to be 37.8 µM.

With `CNC(=O)c1n[nH]c(-n2c(NC(C)C)nc3c(c2=O)C[C@@H](C)N(C(=O)c2ccc(Cl)c(Cl)c2)C3)c1Cl` [Compound C692], the EC50 in series [1] (setting [2]) is 0.07 µM. Moreover, the CC50 at 3 days in “in vitro” (setting [3]) was over 50 µM.

`CNC(=O)c1ccc(-n2c(N[C@@H](C)c3ccc(F)cc3)nc3c(c2=O)C[C@@H](C)N(C(=O)c2ccc(Cl)c(Cl)c2)C3)cc1` [Compound C380]: the EC50 in series [1] (setting [2]) worked out at 0.1 µM. The molecule further displayed a cytotoxic concentration (CC50) at 3 days in the series “in vitro” (setting [3]) of 15.7 µM.

Consider `CC(C)Nc1nc2c(c(=O)n1-c1ccc(C(=O)NCCN3CCN(C)CC3)cc1)C[C@@H](C)N(C(=O)c1ccc(Cl)c(Cl)c1)C2` [Compound C208, 4-[(6R)-7-(3,4-dichlorobenzoyl)-6-methyl-4-oxo-2-[(propan-2-yl)amino]-5,6,7,8-tetrahydropyrido[3,4-d]pyrimidin-3(4H)-yl]-N-[2-(4-methylpiperazin-1-yl)ethyl]benzamide], for which the EC50 in series [1] (setting [4]) came out at 0.62 µM. This molecule also showed a CC50 at 3 days in the series “in vitro” (setting [5]) of 26.3 µM.

As for `CNC(=O)c1ccc(-n2c(NCc3ncn(-c4ccccc4)n3)nc3c(c2=O)C[C@@H](C)N(C(=O)c2ccc(Cl)c(Cl)c2)C3)cc1` [Compound C556], in series [1] (setting [2]), the EC50 came to 0.57 µM. In addition, in “in vitro” (setting [3]), it took 25.6 µM to reach half-maximal cytotoxicity (CC50 at 3 days).

`CNC(=O)c1ccc(-n2c(NCc3ccccc3-n3ccnc3)nc3c(c2=O)C[C@@H](C)N(C(=O)c2ccc(Cl)c(Cl)c2)C3)cc1` [Compound C485]: in series [1] (setting [2]), the EC50 came to 11.9 µM. In the series “in vitro” (setting [3]), this molecule returned a CC50 at 3 days of 24.9 µM.

Take `CC(C)Nc1nc2c(c(=O)n1-c1ccc(-c3nccn3C)cc1Cl)C[C@@H](C)N(C(=O)c1ccc(Cl)c(Cl)c1)C2` (single isomer, unassigned) [Compound C392a]: the EC50 in series [1] (setting [2]) turned out to be 0.16 µM. Moreover, the CC50 at 3 days in the series “in vitro” (setting [3]) was 22.7 µM.
